From patent US20250057961A1, “BLOOD-BRAIN BARRIER PENETRATING DRUG DELIVERY SYSTEM USING SIALYLLACTOSE” (GENECHEM INC., priority 2021, published 2025)
“Also recorded” adds a separate entry of the source. Read-outs that look alike come from different tables or passages of the source.

Tests used:
[1] = mouse, in vivo
Method: (§1) First, the fluorescent substance Cy5.5 (Genechem, Cat no. GCCD0064) was attached to each of lactose, 2,3-sialyllactose (GCB100) and 2,6-sialyllactose (GCB200), and each substance was dissolved and diluted in 10% DMSO, thus preparing samples (final DMSO concentration is approximately 2% of the total volume). After administering each sample at 1 mol/kg into the veins of BALB/c nude mice, the fluorescence signals in the brains of the nude mice were measured at different time points (1, 2, 4, 6, 8, and 24 hours) using the IVIS spectrum CT (Perkin Elmer).
(§2) Next, the fluorescent substance Cy5.5 (Genechem, Cat no. GCCD0064) was attached to each of sialic acid, 2,3-sialyllactose (GCB100) and 2,6-sialyllactose (GCB200), and each substance was dissolved and diluted in 10% DMSO, thus preparing samples (final DMSO concentration is approximately 2% of the total volume). After administering each sample at 1 mol/kg into the veins of BALB/c nude mice, the fluorescence signals in the brains of the nude mice were measured at different time points (10 min, 30 min, 1, 2, 4, 6, 8, and 24 hours) using the IVIS spectrum CT (Perkin Elmer). 24 hours after administration, the nude mice were perfused with saline solution, the brains were extracted, and fluorescence present in the brains was measured.
(§3) The experiment was conducted in the same manner as the above-described experiment on blood-brain barrier penetration of sialyllactose.
(§4) Here, Cy5.5 alone and gemcitabine attached to only Cy5.5 were used as controls. First, each material was dissolved and diluted in 10% DMSO, thus preparing samples (final DMSO concentration is approximately 2% of the total volume). After administering each sample at 1 mol/kg into the veins of BALB/c nude mice, the fluorescence signals in the brains of the nude mice were measured at different time points (10 min, 30 min, 1, 2, 4, 6, 8, and 24 hours) using the IVIS spectrum CT (Perkin Elmer). 24 hours after administration, the nude mice were perfused with saline solution, the brains were extracted, and fluorescence present in the brains was measured.

[2] = Blood-brain barrier penetration experiment: brain fluorescence of Cy5.5-attached substances (IVIS spectrum CT, in vivo and extracted brain); settings: for brain penetration (fluorescence signal in the brain): Cy5.5-attached substance, into the veins, up to 24 hours, FIGS. 1-3
Method: as §1, §2, §3, §4

U-87MG = assay: Anticancer efficacy in mouse brain cancer model (luciferase-expressing U-87MG transplanted into brain, optical imaging); assay type: in vivo; settings: intravenously twice a week, 8 times for 4 weeks; GCB017 22 mol/kg; days 20, 24, 27; FIG. 13
Method: The brain cancer model was produced by transplanting U-87MG, a brain cancer cell line that expresses luciferase. For transplantation into the brain, each animal was anesthetized by isoflurane injection and fixed on a stereotaxic arm, and the head skin was incised vertically by about 1 cm and the injection site was exposed using a micro drill. The cell line was transferred into a 25-μl Hamilton syringe equipped with a 31-gauge needle, and then the cell line was transplanted at a rate of 1 i/min to an area 1 mm anterior, 2 mm lateral, and 3 mm deep based on bregma. After cell line transplantation, in order to prevent reflux and ensure good absorption, the syringe was maintained for about 10 minutes and separated, and the incision was sutured and disinfected. After confirming that the anesthesia had worn off, the animals were reared normally. Starting 1 week after model production, each of methotrexate and GCB017 was administered intravenously twice a week for a total of 8 times for 4 weeks, and the size of the brain tumor was measured by optical imaging (FIG. 13). […] In combination with the results of Examples 3-2 and 3-3 above, it is believed that the sialyllactose-methotrexate conjugate according to the present invention has an improved BBB penetration ability compared to methotrexate and inhibits tumor formation and growth.

[3] = Brain tissue penetration and substance dissociation (LC-MS/MS of tissue homogenate supernatant); assay type: in vivo
Method: To examine the distribution and dissociation of sialyllactose-conjugated methotrexate in tissues, GCB017 was administered and the presence of GCB017 and its dissociates (linker-6′SL (L-6′SL) and linker) in the brain and pancreas was checked. Specifically, GCB017 was dissolved and diluted in 10% DMSO, thus preparing a sample (final DMSO concentration was approximately 2% of the total volume). The sample was administered intravenously (IV) at a dose of 80 mg/kg or administered orally (PO) at a dose of 80 mg/kg. Then, at different time points (0, 0.5, 2, and 4 hours), the animals were anesthetized, heart blood was collected, saline solution was perfused, and the brain and pancreas were extracted. Each of the extracted tissues was homogenized in 50 mM Tris-HCl buffer (pH 7.5) at a ratio of 1:5 and centrifuged at 3,000 rpm and 4° C. for 20 minutes, and the supernatant was collected and subjected to mass spectrometry (SCIEX Triple Quad 3500 LC-MS/MS system).
The sample was administered intravenously (IV) at a dose of 80 mg/kg or administered orally (PO) at a dose of 246 mg/kg. Then, at different time points (0, 0.5, 2, and 4 hours), the animals were anesthetized, heart blood was collected, saline solution was perfused, and the brain and pancreas were extracted. Each of the extracted tissues was homogenized in 50 mM Tris-HCl buffer (pH 7.5) at a ratio of 1:5 and centrifuged at 3,000 rpm and 4° C. for 20 minutes, and the supernatant was collected and subjected to mass spectrometry (SCIEX Triple Quad 3500 LC-MS/MS system).

Caspase-3 = settings: BxPC-3, 5-40 nM, 72 hours, FIG. 16B
PARP = settings: BxPC-3, 5-40 nM, 72 hours, FIG. 16B
BxPC-3 = settings: 5, 10, 20 and 40 nM, 72 hours, FIG. 16A

## CC(=O)N[C@H]1[C@H]([C@H](O)[C@H](O)CO)OC(O)(C(=O)O)C[C@@H]1O (stereo partly drawn) [sialic acid, reference compound]
[1]
  brain penetration (fluorescence signal in the brain): brain penetration remained at a similar level

## CN(Cc1cnc2nc(N)nc(N)c2n1)c1ccc(C(=O)N[C@@H](CCC(=O)O)C(=O)O)cc1 [methotrexate, reference compound]
[2]; Cy5.5-attached, time-dependent and extracted brain at 24 hours, FIGS. 11, 12
  fluorescence signal in the brain of sialyllactose-conjugated methotrexate: almost no fluorescence signal appeared in the brain
U-87MG
  size of the brain tumor: the tumor size also tended to increase gradually starting from day 20

## 2,6-sialyllactose [GCB200]
[2]
  brain penetration (fluorescence signal in the brain): well delivered to the brain, compared to lactose-bound Cy5.5; also recorded: the effect of 2,6-sialyllactose was higher than that of 2,3-sialyllactose

## CC(=O)N[C@H]1[C@H]([C@H](O)[C@H](O)CO)O[C@@](OC[C@H]2O[C@@H](O[C@H]3[C@H](O)[C@@H](O)[C@H](OCCCCCCNC(=O)CC[C@H](NC(=O)c4ccc(N(C)Cc5cnc6nc(N)nc(N)c6n5)cc4)C(=O)O)O[C@@H]3CO)[C@H](O)[C@@H](O)[C@H]2O)(C(=O)O)C[C@@H]1O [GCB017]
[1]
  fluorescence signal in the brain of sialyllactose-conjugated methotrexate: a strong fluorescence signal appeared
U-87MG
  size of the brain tumor: tumor formation was delayed and the tumor size was also controlled
[3]; 80 mg/kg IV or 80 mg/kg PO
  presence of GCB017 and its dissociates in brain tissue: detected in the brain tissue not only when GCB017 was administered intravenously but also when administered orally
[3]; brain, iv, 80 mg/kg, GCB017 80 mg/kg IV, 2 h, single animals
  level at 2 h: 52.7 ng/mL
[3]; brain, po, 80 mg/kg, GCB017 80 mg/kg PO, 4 h, single animals
  level at 4 h: 30.3 ng/mL

## 2,3-sialyllactose [GCB100]
[2]
  brain penetration (fluorescence signal in the brain): well delivered to the brain, compared to lactose-bound Cy5.5

## CCN1\C(=C/C=C/C=C/C2=[N+](CCCCCC(=O)O)c3ccc4c(S(=O)(=O)O)cc(S(=O)(=O)O)cc4c3C2(C)C)C(C)(C)c2c1ccc1c(S(=O)(=O)[O-])cc(S(=O)(=O)O)cc21 [Cy5.5, reference compound]
[2]
  brain penetration (fluorescence signal in the brain): barely penetrated the blood-brain barrier
[2]; Cy5.5-attached, controls Cy5.5-dopamine or Cy5.5, FIGS. 5, 6, 8, 9
  brain penetration (fluorescence signal in the brain) of sialyllactose-conjugated dopamine: barely detected in the brain

## gemcitabine-succinate-aminohexyl-6′SL [GCB034]
Caspase-3
  increase in Caspase-3 cleavage: significant in a concentration-dependent manner
PARP
  decrease in the pro-form of PARP: significant in a concentration-dependent manner
BxPC-3
  cell viability (anticancer effect): induce cancer cell death at all treatment concentrations, but also exhibited a higher anticancer effect than gemcitabine
